Measured values taken from patent publication US11999727B2 (Tango Therapeutics, Inc., priority 2020, dated 2024).
Where two headings read alike, the source gives them in different places.

Tests used:
[1] = test system: HAP1 MTAP-deleted cell line; assay: Viability assay, MTAP-deleted cell line; assay type: cell-based; settings: Homo sapiens
Excerpt: Table 1 additionally indicates IC50 values in a viability assay for the MTAP-deleted cell line (column 10), indicating the effect of treatment with compound on cell survival.

[2] = biological target: T1, PRMT5 (Homo sapiens, UniProt O14744); assay: PRMT5 biochemical IC50 assay with no cofactor; settings: PRMT5, no cofactor
T1 construct: purchased Viva (custom protein)
T1 sequence (O14744 whole entry): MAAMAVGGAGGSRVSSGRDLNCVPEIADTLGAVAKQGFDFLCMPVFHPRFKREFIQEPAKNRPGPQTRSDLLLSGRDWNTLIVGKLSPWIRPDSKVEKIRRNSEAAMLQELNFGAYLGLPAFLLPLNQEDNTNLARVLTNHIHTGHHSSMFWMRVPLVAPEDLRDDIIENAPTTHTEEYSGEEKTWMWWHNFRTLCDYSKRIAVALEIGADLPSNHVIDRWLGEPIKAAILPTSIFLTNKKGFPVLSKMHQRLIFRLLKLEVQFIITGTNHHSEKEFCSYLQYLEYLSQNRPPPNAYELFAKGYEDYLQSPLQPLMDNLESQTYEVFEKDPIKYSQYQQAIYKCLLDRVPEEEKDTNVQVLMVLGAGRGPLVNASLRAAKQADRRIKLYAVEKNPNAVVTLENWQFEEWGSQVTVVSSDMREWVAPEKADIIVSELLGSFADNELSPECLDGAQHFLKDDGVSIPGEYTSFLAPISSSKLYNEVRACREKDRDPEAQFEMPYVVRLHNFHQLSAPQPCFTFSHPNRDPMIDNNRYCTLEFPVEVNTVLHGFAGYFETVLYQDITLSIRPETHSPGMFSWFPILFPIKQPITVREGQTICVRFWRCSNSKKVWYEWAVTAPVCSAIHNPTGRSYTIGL
T1 sequence (Q9BQA1 whole entry partner): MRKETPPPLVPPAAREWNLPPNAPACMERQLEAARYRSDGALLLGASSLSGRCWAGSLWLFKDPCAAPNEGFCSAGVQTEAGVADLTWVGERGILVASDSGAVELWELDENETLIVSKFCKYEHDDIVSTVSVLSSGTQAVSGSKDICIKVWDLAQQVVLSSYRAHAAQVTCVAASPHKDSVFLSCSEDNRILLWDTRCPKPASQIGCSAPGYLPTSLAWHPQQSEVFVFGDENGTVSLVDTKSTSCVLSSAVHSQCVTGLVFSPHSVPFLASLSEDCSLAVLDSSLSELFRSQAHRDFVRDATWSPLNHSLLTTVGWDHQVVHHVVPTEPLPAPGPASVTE
Excerpt: Table 1 indicates IC50 values (μM) against PRMT5 for exemplary compounds in the presence of SAM as cofactor, with no cofactor, and with MTA as cofactor, respectively (columns 4-6). […] Ki values can be calculated from the IC50 values as described in the Examples section. As detailed in the Examples section, for the assay performed in the presence of SAM, IC50=Ki×1.5 (Ki=IC50/1.5).

[3] = test system: HAP1 MTAP-intact cell line; assay: SDMA in-cell western assay, HAP1 MTAP-intact; assay type: cell-based; settings: Homo sapiens
Summary of the method: (§1)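 MTAP-null vs endogenous-MTAP HAP1 isogenic cells; in-cell western SDMA readout; IC50 per line.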

[4] = biological target: T1, PRMT5; assay: PRMT5 biochemical IC50 assay with MTA as cofactor; settings: PRMT5, MTA as cofactor; read-out: MTA IC50
[5] = biological target: T1, PRMT5; assay: PRMT5 biochemical IC50 assay with SAM as cofactor; settings: PRMT5, SAM as cofactor; read-out: SAM IC50
[6] = test system: HAP1 MTAP-deleted cell line; assay: SDMA in-cell western assay, HAP1 MTAP-deleted; assay type: cell-based; settings: for IC50: Homo sapiens; for MTAP intact/deleted ratio: IC50 ratio HAP1 MTAP-intact / HAP1 MTAP-deleted, SDMA in-cell western
Summary of the method: as §1

[7] = HAP1, viability IC50, MTAP-deleted cell line, read-out: HAP1 MTAP deleted viability
[8] = HAP1, SDMA in-cell western, HAP1 MTAP-intact, read-out: MTAP HAP1 intact IC50
[9] = HAP1, SDMA in-cell western, HAP1 MTAP-deleted, read-out: HAP 1 MTAP deleted IC50
[10] = HAP1, viability assay, MTAP-deleted cell line, read-out: HAP1 MTAP deleted viability
[11] = read-out: No Cofactor/ rel IC50
[12] = HAP1, SDMA in-cell western, HAP1 MTAP-deleted, read-out: HAP1 MTAP deleted IC50
[13] = HAP1, viability, HAP1 MTAP-deleted cell line, read-out: HAP1 MTAP deleted viability
[14] = HAP1, viability assay, HAP1 MTAP-deleted, read-out: HAP1 MTAP deleted viability

Structure (SMILES) | IC50 ([2]; read-out: No Cofactor/rel IC50) [µM] | IC50 [3, 8] [µM] | IC50 [4] [µM] | IC50 [5] [µM] | IC50 [6, 9] [µM] | IC50 [2, 11] [µM] | IC50 [6, 12] [µM] | IC50 [1, 7] [µM] | MTAP intact/deleted ratio [6] | IC50 [1, 10] [µM] | IC50 [1, 13] [µM] | IC50 [1, 14] [µM] | IC50 ([1]; HAP1, read-out: HAP1 MTAP deleted viability) [µM] | IC50 ([3]; HAP1, read-out: MTAP HAP1 intact IC50) [µM] | IC50 ([6]; HAP1, read-out: HAP1 MTAP deleted IC50) [µM]
Cc1cc(NC(=O)C(=O)N2CC(C)CC(C)C2c2ccccc2)cnc1N (mixture of isomers) [Compound 314, N-(6-amino-5-methyl-3-pyridyl)-2-(3,5-dimethyl-2-phenyl-1-piperidyl)-2-oxo-acetamide] | 0.05 to 0.5 | > 1 | 0.05 to 0.5 | > 0.5 | – | – | 0.1 to 1 | – | A (an IC50 ratio greater than or equal to 10 fold) | 1 to 10 | – | – | – | – | –
Cc1cc(NC(=O)C(=O)N2CCCC[C@H]2c2cccs2)cnc1N (single isomer, unassigned) [Compound 22] | – | > 1 | 0.05 to 0.5 | > 0.5 | > 1 | > 0.5 | – | – | B (an IC50 ratio greater than or equal to 3 fold but lower than 10 fold) | > 10 | – | – | – | – | –
Cc1cc(NC(=O)C(=O)N2C[C@@H](C)CC[C@@H]2c2ccc(NS(C)(=O)=O)nc2)cnc1N (single isomer, unassigned) [Compound 998] | > 0.5 | > 1 | > 0.5 | > 0.5 | > 1 | – | – | – | C (an IC50 ratio of less than 3 fold) | > 10 | – | – | – | – | –
Cc1cc(NC(=O)C(=O)N2C[C@H](C)C[C@@H](C)[C@H]2c2ccccc2)cnc1N (single isomer, unassigned) [Compound 339] | 0.05 to 0.5 | > 1 | < 0.05 | 0.05 to 0.5 | – | – | 0.1 to 1 | – | A (an IC50 ratio greater than or equal to 10 fold) | > 10 | – | – | – | – | –
Cc1cncc(NC(=O)C(=O)N2C[C@H](C)CC[C@H]2c2ccc(O)cc2)c1 (racemic) [Compound 557, rac-2-((2R,5S)-2-(4-hydroxyphenyl)-5-methylpiperidin-1-yl)-N-(5-methylpyridin-3-yl)-2-oxoacetamide] | 0.05 to 0.5 | > 1 | 0.05 to 0.5 | 0.05 to 0.5 | 0.1 to 1 | – | – | > 10 | A (an IC50 ratio greater than or equal to 10 fold) | – | – | – | – | – | –
CCc1cc(NC(=O)C(=O)N2C[C@H](C)CC[C@H]2c2ccc3[nH]cnc3c2)cnc1N (single isomer, unassigned) [Compound 771] | > 0.5 | > 1 | > 0.5 | > 0.5 | – | – | > 1 | – | C (an IC50 ratio of less than 3 fold) | – | – | > 10 | – | – | –
CNc1nc2cc([C@@H]3CC[C@@H](C)CN3C(=O)C(=O)Nc3cnc(C)c(C)c3)ccc2s1 (racemic) [Compound 828, N-(5,6-dimethyl-3-pyridyl)-2-[(2R,5S)-5-methyl-2-[2-(methylamino)-1,3-benzothiazol-5-yl]-1-piperidyl]-2-oxo-acetamide] | 0.05 to 0.5 | > 1 | 0.05 to 0.5 | 0.05 to 0.5 | – | – | < 0.1 | – | A (an IC50 ratio greater than or equal to 10 fold) | – | – | 1 to 10 | – | – | –
COc1ncc(NC(=O)C(=O)N2C[C@@H](C)CC[C@@H]2c2ccccc2)cc1C(N)=O (single isomer, unassigned) [Compound 291] | > 0.5 | – | > 0.5 | > 0.5 | – | – | – | – | C (an IC50 ratio of less than 3 fold) | – | – | – | > 10 | > 1 | > 1
Cc1cc(NC(=O)C(=O)N2C[C@@H](C)[C@@H](CC(C)C)C[C@@H]2c2ccc3scnc3c2)cnc1N (single isomer, unassigned) [Compound 1157] | > 0.5 | > 1 | > 0.5 | > 0.5 | – | – | > 1 | – | – | > 10 | – | – | – | – | –
CNc1nc2cc([C@H]3CC[C@H](C)CN3C(=O)C(=O)Nc3cncc(C(N)=O)c3)ccc2s1 (single isomer, unassigned) [Compound 862] | > 0.5 | > 1 | > 0.5 | > 0.5 | – | – | > 1 | – | B (an IC50 ratio greater than or equal to 3 fold but lower than 10 fold) | – | – | > 10 | – | – | –
C[C@@H]1CC[C@@H](c2ccc3[nH]ncc3c2)N(C(=O)C(=O)Nc2cnc(N)c(C3CC3)c2)C1 (single isomer, unassigned) [Compound 1361] | – | > 1 | > 0.5 | > 0.5 | > 1 | > 0.5 | – | – | – | – | > 10 | – | – | – | –
CN(C)c1cccc([C@H]2CCCCN2C(=O)C(=O)Nc2cncc(C(N)=O)c2)c1 (single isomer, unassigned) [Compound 366] | > 0.5 | > 1 | 0.05 to 0.5 | > 0.5 | – | – | > 1 | – | C (an IC50 ratio of less than 3 fold) | > 10 | – | – | – | – | –
Cc1cncc(NC(=O)C(=O)N2C[C@H](C)CCC2c2cccc(F)c2)c1 (single isomer, unassigned) [Compound 93] | – | > 1 | 0.05 to 0.5 | 0.05 to 0.5 | > 1 | > 0.5 | – | – | C (an IC50 ratio of less than 3 fold) | > 10 | – | – | – | – | –

Second part, led by results:

IC50 ([2]; read-out: No Cofactor/rel IC50) [µM] | IC50 [3, 8] [µM] | IC50 [4] [µM] | IC50 [5] [µM] | IC50 [6, 9] [µM] | IC50 [2, 11] [µM] | IC50 [6, 12] [µM] | Structure (SMILES) | IC50 [1, 7] [µM] | MTAP intact/deleted ratio [6] | IC50 [1, 10] [µM] | IC50 [1, 13] [µM] | IC50 [1, 14] [µM] | IC50 ([1]; HAP1, read-out: HAP1 MTAP deleted viability) [µM] | IC50 ([3]; HAP1, read-out: MTAP HAP1 intact IC50) [µM] | IC50 ([6]; HAP1, read-out: HAP1 MTAP deleted IC50) [µM]
> 0.5 | > 1 | > 0.5 | > 0.5 | > 1 | – | – | Cc1cc(NC(=O)C(=O)N2C[C@@H](C)CC[C@@H]2c2ccc3c(c2)CNC3=O)cnc1N (single isomer, unassigned) [Compound 591] | > 10 | C (an IC50 ratio of less than 3 fold) | – | – | – | – | – | –
– | > 1 | 0.05 to 0.5 | 0.05 to 0.5 | 0.1 to 1 | > 0.5 | – | NC(=O)c1cncc(NC(=O)C(=O)N2C[C@@H]3CC[C@@H](C3)[C@@H]2c2cccs2)c1 (racemic) [Compound 79, 5-[[2-oxo-2-[(1S,4S,5R)-4-(2-thienyl)-3-azabicyclo[3.2.1]octan-3-yl]acetyl]amino]pyridine-3-carboxamide] | – | A (an IC50 ratio greater than or equal to 10 fold) | > 10 | – | – | – | – | –
– | 0.1 to 1 | < 0.05 | < 0.05 | < 0.1 | < 0.05 | – | CCc1cc(NC(=O)C(=O)N2C[C@@H](C)CC[C@@H]2c2cccc(C3CCN(C)CC3)c2)cnc1N [Compound 1363, N-(6-Amino-5-ethyl-3-pyridyl)-2-oxo-2-[(2R,5S)-5-methyl-2-[3-(1-methyl-4-piperidyl)phenyl]-1-piperidyl]acetamide] | – | A (an IC50 ratio greater than or equal to 10 fold) | – | < 1 | – | – | – | –
< 0.05 | 0.1 to 1 | < 0.05 | 0.05 to 0.5 | < 0.1 | – | – | COc1ncc(NC(=O)C(=O)N2C[C@@H](C)CC[C@@H]2c2ccc3sc(C(F)(F)F)nc3c2)cc1C(N)=O (single isomer, unassigned) [Compound 1024] | – | A (an IC50 ratio greater than or equal to 10 fold) | < 1 | – | – | – | – | –
– | 0.1 to 1 | < 0.05 | 0.05 to 0.5 | < 0.1 | < 0.05 | – | CCc1cc(NC(=O)C(=O)N2C[C@@H](C)CC[C@@H]2c2ccc(N3CCC4(CCCN(C)C4)CC3)cc2)cnc1N (single isomer, unassigned) [Compound 1243] | – | A (an IC50 ratio greater than or equal to 10 fold) | – | < 1 | – | – | – | –
– | 0.1 to 1 | < 0.05 | 0.05 to 0.5 | < 0.1 | < 0.05 | – | CCc1cc(NC(=O)C(=O)N2C[C@H](C)CC[C@H]2c2ccc3c(cnn3CCN(C)C)c2)cnc1N (single isomer, unassigned) [Compound 1374] | – | A (an IC50 ratio greater than or equal to 10 fold) | – | < 1 | – | – | – | –
– | < 0.1 | < 0.05 | 0.05 to 0.5 | < 0.1 | < 0.05 | – | Cc1cc(NC(=O)C(=O)N2C[C@@H](C)CC[C@@H]2c2ccc3sc(-c4cccnc4)nc3c2)cnc1N (single isomer, unassigned) [Compound 1310] | – | A (an IC50 ratio greater than or equal to 10 fold) | – | < 1 | – | – | – | –
